ChEMBL document CHEMBL5154648, “Antitumor activity of novel POLA1-HDAC11 dual inhibitors” (Eur J Med Chem, 2022)
Each block holds one compound with its values, some of them ahead of it. Activity calls are given as the source filed them. The calls are words filed in the database; no cut-off is given here.

Legend:
NCI-H460 [1] = test: Induction of cell cycle arrest in human NCI-H460 cells assessed as accumulation of cells at sub-G1 phase at 0.12 uM after 72 hrs by flow cytometry (reference value: 1.1%); type: functional
[2] = Toxicity in mouse xenografted with human H460-R9A cells assessed as body weight loss at 20 mg/kg, po qd administered 5 times a week for 3 to 4 weeks; type: organism-based; details: in vivo, time 3-4 weeks
[3] = Toxicity in mouse xenografted with human NCI-H460 cells assessed as body weight loss at 20 mg/kg, po qd administered 5 times a week for 3 to 4 weeks; type: organism-based; details: in vivo, time 3-4 weeks
[4] = Induction of cell cycle arrest in human H460-R9A cells assessed as accumulation of cells at G0/1 phase at 2.2 uM after 72 hrs by flow cytometry (reference value: 50.1%); type: functional
Mus musculus = test: Inhibition of POLA1 in mouse B16 cells xenografted C57BL/6 mouse assessed as increase in IFN-alpha levels at 50 mg/kg, po administered twice a day for 5 days measured by ELISA assay; type: functional, organism-based; details: time 5.0 day
MM473 [5] = test: Induction of cell cycle arrest in human MM473-Luc cells assessed as accumulation of cells at S phase at 1.2 uM after 72 hrs by flow cytometry (reference value: 13.7%); type: functional
MM473 [6] = test: Induction of cell cycle arrest in human MM473-Luc cells assessed as accumulation of cells at G2/M phase at 1.2 uM after 72 hrs by flow cytometry (reference value: 11.7%); type: functional
[7] = biological target: T1, Histone deacetylase 11 (Homo sapiens) (UniProt Q96DB2); test: Inhibition of HDAC11 in human MM487 cells at 0.1 to 0.4 uM assessed as increase in p21 level and measured by Western blot analysis; type: cell-based; details: dose 0.1-0.4 µM
T1 sequence (whole entry): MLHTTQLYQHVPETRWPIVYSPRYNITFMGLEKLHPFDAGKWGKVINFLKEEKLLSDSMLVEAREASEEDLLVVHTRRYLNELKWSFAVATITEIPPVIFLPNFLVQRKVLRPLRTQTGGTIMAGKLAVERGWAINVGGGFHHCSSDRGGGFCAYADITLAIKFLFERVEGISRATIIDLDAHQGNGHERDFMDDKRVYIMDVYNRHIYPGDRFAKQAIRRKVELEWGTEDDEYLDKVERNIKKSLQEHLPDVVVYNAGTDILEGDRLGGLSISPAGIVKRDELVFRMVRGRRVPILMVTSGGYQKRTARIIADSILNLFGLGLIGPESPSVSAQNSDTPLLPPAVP

[8] = Antitumor activity against human H460-R9A cells xenografted in mouse assessed as tumor growth inhibition at 50 mg/kg, po qd administered 5 times a week for 3 to 4 weeks in combination with cisplatin at 4 mg/kg, iv administered every 7 days for 4 weeks; type: functional; details: time 3-4 weeks, read-out: TGI
[9] = Induction of cell cycle arrest in human H460-R9A cells assessed as accumulation of cells at G0/1 phase at 2.8 uM after 72 hrs by flow cytometry (reference value: 50.1%); type: functional
A2780 [10] = test: Induction of cell cycle arrest in human A2780 cells assessed as accumulation of cells at sub-G1 phase at 0.6 uM after 72 hrs by flow cytometry (reference value: 1.6%); type: functional
[11] = Antitumor activity against human H460-R9A cells xenografted in mouse assessed as tumor growth inhibition at 50 mg/kg, po qd administered 5 times a week for 3 to 4 weeks; type: functional; details: time 3-4 weeks, read-out: TGI
[12] = Toxicity in mouse xenografted with human H460-R9A cells assessed as body weight loss at 50 mg/kg, po qd administered 5 times a week for 3 to 4 weeks; type: organism-based; details: in vivo, time 3-4 weeks
[13] = biological target: T1, Histone deacetylase 11 (Homo sapiens); test: Inhibition of HDAC11 in human MM473 cells at 0.1 to 0.4 uM assessed as induction of p53 acetylation and measured by Western blot analysis; type: cell-based; details: dose 0.1-0.4 µM
NCI-H460 [14] = test: Induction of cell cycle arrest in human NCI-H460 cells assessed as accumulation of cells at sub-G1 phase at 0.25 uM after 72 hrs by flow cytometry (reference value: 1.1%); type: functional
MM473 [15] = test: Induction of cell cycle arrest in human MM473-Luc cells assessed as accumulation of cells at sub-G1 phase at 1.2 uM after 72 hrs by flow cytometry (reference value: 1.3%); type: functional
A2780 [16] = test: Induction of DNA damage in human A2780 cells at 0.1 to 0.4 uM assessed as increase in p-H2AX levels and measured by Western blot analysis; type: functional, cell-based; details: dose 0.1-0.4 µM
MM473 [17] = test: Induction of cell cycle arrest in human MM473-Luc cells assessed as accumulation of cells at S phase at 1.4 uM after 72 hrs by flow cytometry (reference value: 13.7%); type: functional
[18] = biological target: T1, Histone deacetylase 11 (Homo sapiens); test: Inhibition of HDAC11 in human A2780 cells at 0.1 to 0.4 uM assessed as increase in p21 level and measured by Western blot analysis; type: cell-based; details: dose 0.1-0.4 µM
MM473 [19] = test: Induction of cell cycle arrest in human MM473-Luc cells assessed as accumulation of cells at G0/1 phase at 1.4 uM after 72 hrs by flow cytometry (reference value: 74.7%); type: functional

Compound: O=C(O)C=Cc1ccc(-c2ccc(O)c(C34CC5CC(CC(C5)C3)C4)c2)cc1
Activity (NCI-H460 [1]): 12.4%
Activity [2]: 0%
Activity [3]: 0%
Activity [4]: 22.8%

inhibition [7]: Active
inhibition [13]: Active
Compound: O=C(O)C=Cc1ccc(-c2ccc(OCC(=O)NO)c(C34CC5CC(CC(C5)C3)C4)c2)cc1
inhibition (Mus musculus): Active
Activity (MM473 [5]): 62.9%
Activity (MM473 [6]): 14.1%
inhibition in vivo at 50 mg/kg [8]: 78%
Activity [9]: 49.7%
Activity (A2780 [10]): 33.3%
inhibition in vivo at 50 mg/kg [11]: 38%
Activity [12]: 0%
Activity (NCI-H460 [14]): 12.1%
Activity (MM473 [15]): 39.7%

inhibition [18]: Active
Compound: CC(Oc1ccc(-c2ccc(C=CC(=O)O)cc2)cc1C12CC3CC(CC(C3)C1)C2)C(=O)NO (stereo not given)
Activity (A2780 [16]): Active
Activity (MM473 [17]): 81.6%
Activity (MM473 [19]): 2.3%
